In ChEMBL document CHEMBL1201862, “PubChem BioAssay data set” (2004):
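Method: 48-hour compound exposure of cells in 96-well plates, five concentrations, linear interpolation of endpoints. At the GI50, growth is halved.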 Active and inactive are the calls of the source. Rule as the data show it: active = GI50 up to about 1.1 µM and inactive = higher.

Key:
Assay in all cases: inhibition of tumour cell growth, NCI panel, 48 h
A549 = system: A549
HOP-62 = system: HOP-62
HOP-92 = system: HOP-92
IGROV-1 = system: IGROV-1
M14 = system: M14
MDA-MB-231 = system: MDA-MB-231
MDA-MB-435 = system: MDA-MB-435
NCI-H23 = system: NCI-H23
NCI-H460 = system: NCI-H460
OVCAR-3 = system: OVCAR-3
OVCAR-8 = system: OVCAR-8
SF-295 = system: SF-295
SF-539 = system: SF-539
SK-MEL-2 = system: SK-MEL-2
SNB-19 = system: SNB-19
TK-10 = system: TK-10
U-251 = system: U-251
RPMI-8226 = system: RPMI-8226
SR = system: SR

Measured: GI50

O=C1Oc2ccccc2C(=O)/C1=C\NC(=S)c1ccncc1
inactive: A549 > 100 µM | HOP-62 84.1 µM | HOP-92 > 100 µM | IGROV-1 67.1 µM | M14 > 100 µM | MDA-MB-231 > 100 µM | MDA-MB-435 98.4 µM | NCI-H23 > 100 µM | NCI-H460 57.7 µM | OVCAR-3 71.6 µM | OVCAR-8 99.3 µM | SF-295 > 100 µM | SF-539 > 100 µM | SK-MEL-2 42.3 µM | SNB-19 96.8 µM | TK-10 > 100 µM | U-251 > 100 µM

CC(=O)OCC1=CC2CCC3C(C)(CCC[C@]3(C)COC(C)=O)C23CC[C@H]1C3 (some centres not stated)
inactive: A549 64 µM | HOP-62 75.9 µM | HOP-92 27.8 µM | IGROV-1 99.3 µM | M14 36 µM | NCI-H23 33.9 µM | NCI-H460 > 100 µM | OVCAR-3 31.9 µM | OVCAR-8 53.7 µM | RPMI-8226 21.6 µM | SF-295 37.3 µM | SF-539 40.3 µM | SK-MEL-2 33.8 µM | SNB-19 68.4 µM | SR 27.5 µM | TK-10 > 100 µM | U-251 27.9 µM

CC1=NC(C)(C)N(O)C1(C)C
inactive: A549 > 100 µM | HOP-62 > 100 µM | HOP-92 > 100 µM | IGROV-1 > 100 µM | M14 > 100 µM | MDA-MB-231 > 100 µM | MDA-MB-435 > 100 µM | NCI-H23 > 100 µM | NCI-H460 > 100 µM | OVCAR-3 > 100 µM | OVCAR-8 > 100 µM | RPMI-8226 > 100 µM | SF-295 > 100 µM | SF-539 > 100 µM | SK-MEL-2 > 100 µM | SNB-19 > 100 µM | SR > 100 µM | TK-10 > 100 µM | U-251 > 100 µM

CC(C)(C)[C@H]1NC(=O)CN1C(=O)OCc1ccccc1
inactive: A549 > 100 µM | HOP-62 > 100 µM | HOP-92 5.12 µM | IGROV-1 > 100 µM | M14 > 100 µM | MDA-MB-231 35.5 µM | MDA-MB-435 > 100 µM | NCI-H23 > 100 µM | NCI-H460 > 100 µM | OVCAR-8 > 100 µM | RPMI-8226 87.7 µM | SF-295 45.6 µM | SF-539 > 100 µM | SK-MEL-2 > 100 µM | SNB-19 > 100 µM | SR 20 µM | TK-10 > 100 µM | U-251 82 µM

O=C1CCC(=O)c2c1c(O)c1ccncc1c2O
inactive: A549 20.4 µM | HOP-62 30.9 µM | HOP-92 22.8 µM | IGROV-1 15 µM | M14 15.6 µM | NCI-H23 16.4 µM | NCI-H460 15.1 µM | OVCAR-3 2.88 µM | OVCAR-8 10 µM | RPMI-8226 17.5 µM | SF-295 18 µM | SF-539 15.6 µM | SK-MEL-2 13.6 µM | SNB-19 26 µM | SR 13 µM | TK-10 18.4 µM | U-251 23.9 µM

COC(=O)C1=NC(=S)NC(c2ccccc2)C1c1nc2ccccc2o1 (configuration not stated)
inactive: A549 > 50 µM | HOP-62 > 50 µM | HOP-92 > 50 µM | IGROV-1 > 50 µM | M14 > 50 µM | NCI-H23 > 50 µM | NCI-H460 > 50 µM | OVCAR-3 > 50 µM | OVCAR-8 > 50 µM | RPMI-8226 > 50 µM | SF-295 > 50 µM | SF-539 > 50 µM | SK-MEL-2 > 50 µM | SNB-19 > 50 µM | SR > 50 µM | TK-10 > 50 µM | U-251 > 50 µM

CCNC1CC(C(C)(C)NCC)CC=C1C (configuration not stated)
inactive: A549 > 100 µM | HOP-62 > 100 µM | HOP-92 > 100 µM | IGROV-1 > 100 µM | M14 > 100 µM | MDA-MB-231 > 100 µM | MDA-MB-435 > 100 µM | NCI-H23 > 100 µM | NCI-H460 > 100 µM | OVCAR-3 > 100 µM | OVCAR-8 > 100 µM | SF-295 > 100 µM | SF-539 > 100 µM | SNB-19 > 100 µM | SR > 100 µM | TK-10 > 100 µM | U-251 > 100 µM

CC(=O)OCC1OC(n2c3c(c(-c4ccc(Cl)cc4)c(C#N)c2=S)CCCC3)C(OC(C)=O)C(OC(C)=O)C1OC(C)=O (configuration not stated)
inactive: A549 36.1 µM | HOP-62 97.3 µM | HOP-92 7.29 µM | IGROV-1 45.9 µM | M14 81.1 µM | MDA-MB-231 > 100 µM | MDA-MB-435 67.3 µM | NCI-H23 46.5 µM | NCI-H460 42.5 µM | OVCAR-3 21.7 µM | OVCAR-8 > 100 µM | SF-295 37.9 µM | SF-539 74.5 µM | SK-MEL-2 30.6 µM | SNB-19 41.8 µM | SR > 100 µM | TK-10 44.9 µM | U-251 88.9 µM

O=C1c2ccccc2C(=O)c2nc3ccc(Cl)cc3cc21
inactive: A549 > 100 µM | HOP-62 > 100 µM | HOP-92 > 100 µM | IGROV-1 > 100 µM | M14 > 100 µM | NCI-H23 > 100 µM | NCI-H460 > 100 µM | OVCAR-3 > 100 µM | OVCAR-8 > 100 µM | RPMI-8226 > 100 µM | SF-295 52.5 µM | SF-539 > 100 µM | SK-MEL-2 > 100 µM | SNB-19 > 100 µM | SR > 100 µM | TK-10 > 100 µM | U-251 > 100 µM

Clc1ccc(/N=C/c2cc3cc(Br)ccc3nc2Cl)cc1
inactive: HOP-92 > 50 µM | IGROV-1 17.8 µM | M14 14.4 µM | MDA-MB-435 8.71 µM | NCI-H23 > 50 µM | NCI-H460 18.1 µM | OVCAR-8 28.1 µM | RPMI-8226 13.2 µM | SF-539 21.4 µM | SK-MEL-2 10.8 µM | SR 10.1 µM

COc1nc(NC2OC(COC(C)=O)C(OC(C)=O)C(OC(C)=O)C2OC(C)=O)c(-c2csc(N)n2)c(=O)n1C (configuration not stated)
inactive: A549 55 µM | HOP-62 29.6 µM | HOP-92 28.4 µM | IGROV-1 > 100 µM | M14 78.7 µM | NCI-H23 66.1 µM | NCI-H460 73.1 µM | OVCAR-3 93.3 µM | OVCAR-8 31.8 µM | RPMI-8226 > 100 µM | SF-295 68.4 µM | SF-539 54.2 µM | SK-MEL-2 21.5 µM | SNB-19 > 100 µM | SR > 100 µM | TK-10 > 100 µM | U-251 61.5 µM

O=C1OC(=O)c2c1c(-c1ccccc1)cn2-c1ccc(Cl)cc1
inactive: A549 83 µM | HOP-62 14.6 µM | HOP-92 > 100 µM | IGROV-1 24.7 µM | M14 8.28 µM | NCI-H23 > 100 µM | NCI-H460 > 100 µM | OVCAR-3 54.7 µM | OVCAR-8 > 100 µM | RPMI-8226 26.8 µM | SF-295 > 100 µM | SF-539 > 100 µM | SK-MEL-2 > 100 µM | SNB-19 > 100 µM | SR > 100 µM | TK-10 > 100 µM | U-251 87.3 µM
